Experimental data: article PMC9404989, “Design and Evaluation of Short Bovine Lactoferrin-Derived Antimicrobial Peptides against Multidrug-Resistant Enterococcus faecium” (Antibiotics, 2022)
No end group written: not given here.

Experiments:
E. faecalis OG1RF = assay: MIC assay, E. faecalis OG1RF; assay type: cell-based; conditions: rifampin and fusidic acid resistant
Method: (§1) To determine the MICs of peptides, we used the broth microdilution method described by the Clinical and Laboratory Standards Institute. We made serial dilutions of 10× concentration (10 µL) for each peptide in duplicates in 96-well plates (Cat No. 3595, Corning, New York, NY, USA). We added 90 µL of logarithmic-phase bacteria at 5 × 10^5 CFU/mL (in BHI media) to the peptides and then incubated the plates at 37 °C for 18 h. We measured the OD600 absorbance readings using the Spectra Max i3x spectrophotometer (Molecular Devices, San Jose, CA, USA) and determined the MIC as the peptide concentration that inhibits the growth of bacteria.

[1] = test system: E. faecium strain C68 established biofilms; assay type: cell-based, Enterococcus faecium; conditions: strain C68 established biofilms, 24 h
Method: We prepared exponential cultures of E. faecium strain C68 (adjusted to 1 × 10^8 CFU/mL) in BHI media (supplemented with 0.2% glucose) from overnight grown cultures. We added 100 µL of the bacterial culture to wells of flat-bottomed 96-well polystyrene microtiter plates (Cat No. 3595, Corning, NY, USA). We then incubated the plates at 37 °C for 24 h in static conditions to allow biofilm formation. After incubation, we carefully pipetted out the media and washed the wells with PBS (Gibco, Waltham, MA, USA) to remove loosely attached planktonic cells. We treated the established biofilms in each well with 10 µL of serially diluted 10× peptide solution, followed by the addition of 90 μL of BHI media (supplemented with 0.2% glucose). The plates were incubated for another 24 h at 37 °C before processing for biomass and live-cell contents. We quantitated the concentration of peptide that disrupts 50% of established biofilms (MBEC50).

E. faecium strain C68 [2] = assay: microbe, parasite or virus in culture; assay type: cell-based, Enterococcus faecium; conditions: strain C68, 18 h
Method: as §1
To investigate the activity of peptides in various salt concentrations, we included physiologically relevant salts in the BHI medium.

[3] = test system: E. faecium E007 established biofilms; assay type: cell-based, Enterococcus faecium
S. aureus MW2 = assay: microbe, parasite or virus in culture; assay type: cell-based, Staphylococcus aureus; conditions: MW2, 18 h
Method: as §1

[4] = HPLC retention time on C18 reverse-phase column; assay type: physicochemical
Text: Table 1 Physical parameters and the minimal inhibitory concentration (µg/mL) of designed peptides against E. faecium. | column: rT ^f (min)

E. faecium WC176 = assay: organism not typed; assay type: cell-based, Enterococcus faecium; conditions: WC176, 18 h
Method: as §1

E. faecalis MMH594 = assay: microbe, parasite or virus in culture; assay type: cell-based; conditions: MMH594, 18 h
Method: as §1

E. faecalis V583 = assay: microbe, parasite or virus in culture; assay type: cell-based; conditions: V583, 18 h
Method: as §1

[5] = test system: drug-resistant E. faecium clinical isolates; assay type: cell-based, Enterococcus faecium; conditions: strains D14, D24, D25, D29, C68 and WC176
Method: as §1

[6] = test system: E. faecium C68 biofilm formation; assay: Prevention of E. faecium biofilm formation (XTT, crystal violet); assay type: cell-based, Enterococcus faecium; conditions: XTT, 24 h, BHI + 0.2% glucose
Method: We evaluated the ability of the lactoferrin-derived peptides to inhibit biofilm formation following an established protocol with modifications. In short, we prepared exponential cultures of E. faecium C68 (adjusted to OD600 = 0.01) in BHI media (supplemented with 0.2% glucose) from overnight grown cultures. We added 90 µL of the bacterial culture to 10 µL of serially diluted 10× peptide solution in flat-bottomed 96-well polystyrene microtiter plates (Cat No. 3595, Corning, NY, USA) and then incubated the plates at 37 °C for 24 h. We considered media containing bacteria and water as the positive control, while media with water served as the negative control. After incubation, we carefully pipetted out the media and washed the wells with PBS (Gibco, Waltham, MA, USA) to remove loosely attached planktonic cells. We quantified the biomass by staining the biofilms with crystal violet following an established protocol and quantitated the concentration of peptide that inhibits 50% of biofilm formation (MBIC50). Furthermore, we measured the live cell count of the biofilms using XTT [2,3-bis(2-methyloxy-4-nitro-5-sulfophenyl)-2H-tertazolium-5-carboxanilide] dye (ATCC, Manassas, VA, USA). We calculated the percentage of biofilm growth by assuming that there was 100% biofilm growth in wells with bacteria without peptide treatment.

E. faecium D24 = assay: microbe, parasite or virus in culture; assay type: cell-based, Enterococcus faecium; conditions: D24, 18 h
Method: as §1

E. faecium D14 = assay: microbe, parasite or virus in culture; assay type: cell-based, Enterococcus faecium; conditions: D14, 18 h
Method: as §1

E. faecium D25 = assay: microbe, parasite or virus in culture; assay type: cell-based, Enterococcus faecium; conditions: D25, 18 h
Method: as §1

E. faecium strain C68 [7] = assay: microbe, parasite or virus in culture; assay type: cell-based, Enterococcus faecium; conditions: strain C68, 18 h; remark: listed apart in the source
Method: as §1

E. faecium D29 = assay: microbe, parasite or virus in culture; assay type: cell-based, Enterococcus faecium; conditions: D29, 18 h
Method: as §1

E. faecium E007 = assay: microbe, parasite or virus in culture; assay type: cell-based, Enterococcus faecium; conditions: E007, 18 h
Method: as §1

E. faecium = assay: Antibacterial activity of native LfcinB6; assay type: cell-based, Enterococcus faecium; conditions: strain and source not given

RRWLWRRRWLWL-NH2 [Peptide 8L]
MIC E. faecalis OG1RF (E. faecalis OG1RF): > 32 µg/mL | MBEC50 (established biomass) [1]: 30 µg/mL | MIC + CaCl2 (2.5 mM) (E. faecium strain C68 [2]): 16 µg/mL | MIC + MgSO4 (1 mM) (E. faecium strain C68 [2]): 4 µg/mL | MIC + NaCl (150 mM) (E. faecium strain C68 [2]): 4 µg/mL | MIC + ZnSO4 (8 µM) (E. faecium strain C68 [2]): 2 µg/mL | concentration killing 50% of live bacteria cells in established biofilms ([3]; strain E007, 24 h established biofilms, XTT): > 32 µg/mL | established biomass disrupted ([3]; strain E007, at 32 µg/mL): 25–30% | MIC S. aureus MW2 (S. aureus MW2): > 32 µg/mL | rT (HPLC retention time) [4]: 21.235 min | MIC WC176 (E. faecium WC176): 16 µg/mL | MIC E. faecalis MMH594 (E. faecalis MMH594): > 32 µg/mL | MIC E. faecalis V583 (E. faecalis V583): > 32 µg/mL | MIC range against clinical isolates of E. faecium [5]: 8 to 32 µg/mL | concentration killing 50% of live bacterial cells during biofilm formation stage [6]: 2.8 µg/mL | MIC D24 (E. faecium D24): 8 µg/mL | MIC D14 (E. faecium D14): 16 µg/mL | MIC D25 (E. faecium D25): 8 µg/mL | MIC EF C68 (E. faecium strain C68 [7]): 4 µg/mL | MIC Media Only (E. faecium strain C68 [7]): 4 µg/mL | MIC D29 (E. faecium D29): 32 µg/mL | MIC E007 (E. faecium E007): 4 µg/mL

RRWQWR [LfcinB6]
activity against E. faecium (E. faecium): inactive
